The values that follow are results of earlier work, collected in patent publication US8318788B2, “Layered pharmaceutical formulations” (priority 2006, dated 2012).

The conditions of data set [1]: patients presenting primary obesity.

As to `CNCCC(Oc1ccc(C(F)(F)F)cc1)c1ccccc1` (stereo not drawn) [Fluoxetine, N-methyl-3-phenyl-3-[4-(trifluoromethyl)phenoxy]-propan-1-amine], under “in vivo”, the bioavailability entry is given as “approximately 72%” and the physiological half life result is on record as “about 24 hours”. Also, the plasma protein binding result (mostly albumin) is listed as “highly bound to plasma proteins”.
Consider `Cc1cc2c(s1)Nc1ccccc1N=C2N1CCN(C)CC1` [Olanzapine, 2-methyl-4-(4-methyl-1-piperazinyl)-10H-thieno[2,3-b][1,5]benzodiazepine], for which, where the note is “in vivo”, the “effect of food on bioavailability” value was “not affected by food”, the first pass metabolism entry is given as “extensive first pass metabolism”, the kinetics entry is given as “linear kinetics” and the “time until steady state plasma concentrations are achieved” value is recorded as “about a week”.
On to `NS(=O)(=O)Cc1noc2ccccc12` [Zonisamide], for which the weight loss entry in data set [1] is “significant weight loss”. Besides, in the data set with carbonic anhydrase, the “inhibitory effect on carbonic anhydrase” value is “weak inhibitory effect”.
